Data as given in US8940777B2 (priority 2008, dated 2015).
Where two headings read alike, the source gives them in different places.

Test system: Rhizoctonia solani
Format: in vivo
Conditions: cucumber (Sagami Hanjiro) seeds coated, 7 days after sowing
Method: Thoroughly mixed were 2.5 parts of clothianidin, 1.25 parts of tolclofos-methyl, 14 parts of polyoxyethylene styryl phenyl ether, 6 parts of calcium dodecylbenzenesulfonate and 76.25 parts of xylene to give a formulation.
The formulation was diluted with acetone, to prepare an acetone mixed solution containing clothianidin and tolclofos-methyl of given concentration.
Five (5) g of cucumber (Sagami Hanjiro) seeds were coated with 1 ml of the mixed solution using a rotation mode seed treating machine (Seed Dresser, manufactured by Hans-Ulrich Hege GmbH), to give treated seeds.
The treated seeds were allowed to stand still overnight, then, sowed on a soil stuffed in a plastic pot, and covered by a soil blended with Rhizoctonia solani cultured in a bran medium. Cultivation thereof was performed at room temperature while irrigating. Seven (7) days after sowing, the number of non-budded seeds was checked, and the damaged ratio was calculated from the formula 1. Based on the damaged ratio, the control value was calculated from the formula 2.
For comparison, an acetone solution containing clothianidin of a given concentration, and an acetone solution containing tolclofos-methyl of a given concentration were prepared, and subjected to the same test. […]

| SMILES | Control value (active ingredient amount 200 g/100 kg-seed) | Control value (active ingredient amount 10 g/100 kg-seed) |
| --- | --- | --- |
| CN/C(=N\[N+](=O)[O-])NCc1cnc(Cl)s1 [Clothianidin, clothianidin] | 4 | – |
| COP(=S)(OC)Oc1c(Cl)cc(C)cc1Cl [Tolclofos-methyl, tolclofos-methyl] | – | 57 |
